From PMC6374431, “NMR Analysis on Molecular Interaction of Lignin with Amino Acid Residues of Carbohydrate-Binding Module from Trichoderma reesei Cel7A” (Scientific Reports, 2019)

Molecular target: T1, TrCBM1 (CBM1 of TrCel7A, cellobiohydrolase I) (Trichoderma reesei, UniProt P62694)
T1 construct: gene cbh1; isolated C-terminal family 1 CBM (36 residues) plus residual residues at N- and C-termini from enterokinase and thrombin cleavage; His tag and GFP removed; E. coli BL21(DE3); 15N-labeled, mass 5255
T1 sequence (P62694 478-513): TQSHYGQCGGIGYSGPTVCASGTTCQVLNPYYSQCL
Experiment: NMR titration, chemical shift perturbation (1H-15N SOFAST-HMQC)
Format: binding
Conditions: 100 μM 15N-TrCBM1, 100 mM citric acid buffer pH 5.0, 10% D2O, 298 K; cellohexaose 700-5600 μM; flat plane surface and cleft

`OC[C@H]1O[C@@H](O[C@H]2[C@H](O)[C@@H](O)[C@H](O[C@H]3[C@H](O)[C@@H](O)[C@H](O[C@H]4[C@H](O)[C@@H](O)[C@H](O[C@H]5[C@H](O)[C@@H](O)[C@H](O[C@H]6[C@H](O)[C@@H](O)C(O)O[C@@H]6CO)O[C@@H]5CO)O[C@@H]4CO)O[C@@H]3CO)O[C@@H]2CO)[C@H](O)[C@@H](O)[C@@H]1O` (stereo partly shown) [cellohexaose] was tested, and the “Δδ (CSP)” value was “The incremental addition of cellohexaose continuously increased Δδ”.
